Laboratory results reported in patent US11459586B2, “Methods for increasing efficiency of nuclease-mediated gene editing in stem cells” (President and Fellows of Harvard College, priority 2016, dated 2022).

What was measured:
hiPSC = assay: toxicity of chemical inhibitors added to hiPSC culture after nucleofection
Protocol: Plasmids were purified using the plasmid DNA purification kit sold under the trademark Qiagen ENDOFREE® Plasmid Maxi kit and nucleofected into iPSC cells using the Lonza 4D-Nucleofector X unit (Buffer P3, Program CB-150). For each 20 μl nucleofection reaction, 0.2-0.5×106 iPSC were transfected with up to 4 μg of plasmid DNA. Post-nucleofection, iPSC were plated onto solubilized basement membrane matrix secreted by Engelbreth-Holm-Swarm (EHS) mouse sarcoma cells sold under the trademark […]®-coated wells containing feeder-free cell culture medium sold under the trademark MTESR1™ media with 10 μM Y-27632 plus other chemical inhibitors when noted. Later experiments included 50 μM zVAD-fmk (Bachem) for 1 day and 10 μM SB203580 (Biovision) for 4-5 days post transfection (see FIGS. 5, 6, 11, and 12). For FIG. 6 (ssODN transfection), 200 ng/ml recombinant B 18R (eBioscience), was also added to the culture for 5 days post transfection.
The following inhibitors were added to the hiPSC culture at the concentrations and time periods indicated in the Examples below. • 1. p53 or Bax inhibitors: cyclic pifithrin α (StemCell Technologies); pifithrin (Tocris); peptide V5, peptide control, iMAC1 and iMAC2 (EMD Millipore); N-acetyl cysteine and 4-hydroxy TEMPO (TEMPOL) (Sigma). • 2. […]

human iPSC [1] = assay: mThy1 gene targeting in hiPSC co-transfected with DNA repair or viral inhibitor genes; type: cell-based; conditions: 0.5 μg plasmid overexpressing the DNA repair gene; 50 μM zVAD and 10 μM SB203580 post transfection (FIG. 9E)
Protocol: FIGS. 9A-G. Effects of chemical and genetic inhibitors on mThy1 gene targeting in hiPSC. FIG. 9A. Mouse Thy1 gene targeting scheme. Human iPSC were nucleofected with the mThy1 targeting vector system plasmids and analyzed by flow cytometry five days later. The percentages of mThy1^+hThy1^−, mThy1^+hThy1^+, and mThy1^−hThy1^− cells for each sample (gated on live single cells) are graphed. Lines mark the percentage values for the control sample. FIGS. 9B-9D. Human iPSC were nucleofected with: 2 μg mThy1 targeting vector; 0.5 μg Cas9 plasmid; and 1.5 μg of sgRNA plasmids. The sample was divided into multiple wells and cultured in plain media (mTeSR1+10 μM Y-27632 ROCK inhibitor) supplemented with the indicated chemical inhibitor for three days. 20 μM pifithrin α, 200 μM peptide V5 (VPMLK, SEQ ID NO:31), 200 μM peptide control (IPMIK, SEQ ID NO:32), 50 μM TEMPOL, or the indicated concentrations of SCR7 or L755507 were used. FIG. 9B, mThy1^+hThy1^− (bottom portion of each bar in each graph), mThy1^+hThy1^+ (top portion of each bar in each graph). FIG. 9C, mThy1^+hThy1^− (bottom portion of each bar in each graph), mThy1^+hThy1^+ (top portion of each bar in left and center graphs, middle portion of each bar in right graph), and mThy1^−hThy1^− (top portion of each bar in right graph). […]

human iPSC [2] = assay: gene targeting (mThy1, mCD147) in hiPSC transiently transfected with Cas9-IRES-anti-apoptotic gene plasmids; type: cell-based; conditions: Cas9 Bcl-2 sgRNA plasmids, transient transfection
Protocol: FIGS. 4A-D. Bcl-2 overexpression increases HR-mediated gene targeting in human iPSC when transiently transfected with the Cas9 nuclease. FIG. 4A. Mouse Thy1 gene targeting scheme. FIG. 4B. Plasmids were constructed to constitutively express Cas9 together with an anti-apoptotic gene (separated by an IRES) under the constitutively active EF1α promoter. Plain human iPSC were nucleofected with 0.5 μg of one of these Cas9 plasmids together with 2 μg of the mThy1 targeting vector and 1.5 μg of plasmids expressing the Thy1 Left, Right, both, or no sgRNAs (pUC19). Five days later, cells were analyzed by flow cytometry. FIG. 4C. Flow cytometry staining for mThy1 and hThy1 for the Cas9 only sample gated on live single cells; the percent of cells in each quadrant is indicated. […] FIG. 4D. Compiled gene editing frequencies. The percent of mThy1^+hThy1^− (bottom portion of each bar in the left, center, and right grafts), mThy1^+hThy1^+ (top portion of bars in the left and center graphs), and mThy1^−hThy1^− (top portion of bars in the right graph) cells is graphed for each indicated sample. Lines mark the percentages for the Cas9 only sample. Results are representative of two independent experiments.
FIGS. 8A-F. Wild type Bcl-2 improves gene targeting at various genomic loci across multiple hiPSC lines. FIG. 8A. Plasmids were constructed to constitutively express the Cas9 nuclease with a form of Bcl-2 (separated by an IRES), and a sgRNA. Three human iPSC lines were nucleofected with 2 μg of mThy1 or mCD147 targeting vector and 2 μg of “Cas9 sgRNA” or “Cas9 Bcl-2 sgRNA” expression plasmid. 5-9 days later, cells were analyzed by flow cytometry. FIG. 8B. Mouse Thy1 gene targeting scheme. FIG. 8C. Single amino acid mutations were generated for the Bcl-2 BH1 (G145A) or BH4 (Y28A) domains. Compiled gene editing frequencies for cells transfected with the Left, Right, or Both Thy1 sgRNAs. The percent of mThy1^+hThy1^− (bottom portion of each set of bars in each graph), mThy1^+hThy1^+ (top portion of left and center sets of bars in each graph and center portion of right set of bars in each graph), and mThy1^−hThy1^− (top portion of right set of bars in each graph) cells among the various samples is indicated. FIG. 8D. Mouse CD147 gene targeting scheme. FIG. 8E. Flow cytometry staining for mCD147 and hCD147 for retrovirally-derived PGP1 hiPSC transfected with “Cas9 sgRNA” or “Cas9 Bcl-2 sgRNA”. Samples are gated on live single cells; the percent of cells in each quadrant is indicated. FIG. 8F. Compiled gene editing frequencies for cells transfected with the Left, Right, or both CD147 sgRNAs. The percent of mCD147^+hCD147^− (bottom portion of each set of bars in each graph), mCD147^+hCD147^+ (top portion of left and center sets of bars in each graph and center portion of right set of bars in each graph), and mCD147^−hCD147^− (top portion of right set of bars in each graph) cells among the three hiPSC lines is indicated.
PCR reactions were done using polymerase sold under the trademark KAPA HIFI™ HotStart polymerase; primers and double-stranded DNA fragments sold under the trademark GBLOCKS® are from IDT. Plasmids were constructed using isothermal assembly, transformed into Stbl3 competent E. coli (Invitrogen), grown at 30° C., and verified by Sanger sequencing (Genewiz). Anti-apoptotic genes were obtained from previously published plasmids: Bcl-2 (Addgene plasmid #8793) and Bcl-xL (#8790) (Cheng et al., 2001); Bcl2A1 (#36973) (Pratt et al., 2012); and Mcl-1 (#21605) (Maurer et al., 2006). The dominant negative p53 sequence from Addgene plasmid #9058 (Hahn et al., 2002) was synthesized as a gBlock. These genes were cloned into the EF1α promoter-Cas9 nuclease plasmid after an IRES.
The U6 promoter-sgRNA (for each sgRNA sequence) was cloned into the EF1α promoter-Cas9 nuclease or EF1α promoter-Cas9 nuclease-IRES-Bcl-2 expression plasmids to form the “Cas9 only sgRNA” or “Cas9 Bcl-2 sgRNA” plasmids used in Examples 6 and 7. […]

Row | Compound | mThy1 gene targeting efficiency (human iPSC [1]) | mThy1 gene targeting, wild type vs mutant Bcl-2 (human iPSC [2]) | also measured
1 | C[C@H]1CCC/C=C/[C@@H]2C[C@H](O)C[C@H]2[C@H](O)/C=C/C(=O)O1 [Brefeldin A] |  |  | toxicity to hiPSC (hiPSC; PGP1 hiPSC, 0.1 μM, data not shown): toxic
2 | CC(=O)N[C@@H](CS)C(=O)O [N-acetyl cysteine] |  |  | toxicity to hiPSC (hiPSC; 1-5 mM): toxicity
3 | BRCA1: principal HR mediator, overexpressed from plasmid | did not improve mThy1 gene targeting efficiency |  | 
4 | BRCA2: principal HR mediator, overexpressed from plasmid | did not improve mThy1 gene targeting efficiency |  | 
5 | G145A: Bcl-2 with G145A mutation in the BH1 domain, prevents interaction with Bax |  | intermediate levels of gene targeting | 
6 | Y28A: Bcl-2 with Y28A mutation in the BH4 domain |  | intermediate levels of gene targeting | 
